Assay results from ChEMBL document CHEMBL1201862, “PubChem BioAssay data set” (2004).
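Protocol summary: plate cells (96-well), add compound at 5 concentrations, incubate 48 h, interpolate endpoints linearly. Here, GI50 denotes the concentration required for 50% inhibition of growth.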 The source made the active and inactive calls. Rule as the data show it: active = GI50 up to about 1.1 µM and inactive = higher.

Experiments:
Experiment in all cases: NCI-60 cell line screen, 48 h
OVCAR-5 = test system: OVCAR-5
OVCAR-4 = test system: OVCAR-4
ACHN = test system: ACHN
SN12C = test system: SN12C
SK-MEL-5 = test system: SK-MEL-5
CCRF-CEM = test system: CCRF-CEM
MOLT-4 = test system: MOLT-4
HCT-15 = test system: HCT-15
COLO 205 = test system: COLO 205
OVCAR-3 = test system: OVCAR-3
IGROV-1 = test system: IGROV-1
SK-MEL-2 = test system: SK-MEL-2
SNB-19 = test system: SNB-19
HCC 2998 = test system: HCC 2998
HT-29 = test system: HT-29
DLD-1 = test system: DLD-1
Hs-578T = test system: Hs-578T
PC-3 = test system: PC-3
LOX IMVI = test system: LOX IMVI
SK-OV-3 = test system: SK-OV-3

Compound	GI50 (OVCAR-5)	GI50 (OVCAR-4)	GI50 (ACHN)	GI50 (SN12C)	GI50 (SK-MEL-5)	GI50 (CCRF-CEM)	GI50 (MOLT-4)	GI50 (HCT-15) [µM]	GI50 (COLO 205)	GI50 (OVCAR-3)	GI50 (IGROV-1)	GI50 (SK-MEL-2)	GI50 (SNB-19)	GI50 (HCC 2998)	GI50 (HT-29)	GI50 (DLD-1)	GI50 (Hs-578T)	GI50 (PC-3)	GI50 (LOX IMVI)	GI50 (SK-OV-3)
O=C1C(c2ccccc2)=C(c2ccccc2)C(c2ccc(CCCCCCc3ccc(C4=C(c5ccccc5)C(=O)C(c5ccccc5)=C4c4ccccc4)cc3)cc2)=C1c1ccccc1	> 100 µM (inactive)	> 100 µM (inactive)	> 100 µM (inactive)	> 100 µM (inactive)	> 100 µM (inactive)	> 100 µM (inactive)	> 100 µM (inactive)	> 100	> 100 µM (inactive)	> 100 µM (inactive)	> 100 µM (inactive)	> 100 µM (inactive)	65 µM (inactive)	> 100 µM (inactive)	> 100 µM (inactive)	> 100 µM (inactive)	–	–	–	–
CCOC(=O)Nn1c(C)nnc1-c1ccccc1	> 100 µM (inactive)	> 100 µM (inactive)	> 100 µM (inactive)	> 100 µM (inactive)	> 100 µM (inactive)	> 100 µM (inactive)	> 100 µM (inactive)	> 100	> 100 µM (inactive)	> 100 µM (inactive)	> 100 µM (inactive)	> 100 µM (inactive)	> 100 µM (inactive)	> 100 µM (inactive)	> 100 µM (inactive)	–	> 100 µM (inactive)	> 100 µM (inactive)	> 100 µM (inactive)	61.7 µM (inactive)
COc1ccc2c(-c3csc(-c4c[nH]c5ccccc45)n3)c[nH]c2c1	7.8 µM (inactive)	11 µM (inactive)	5.48 µM (inactive)	7.57 µM (inactive)	7.18 µM (inactive)	4.36 µM (inactive)	3.86 µM (inactive)	1.45	6.59 µM (inactive)	13.9 µM (inactive)	5.58 µM (inactive)	14.5 µM (inactive)	13.2 µM (inactive)	4.03 µM (inactive)	2.34 µM (inactive)	–	12.5 µM (inactive)	4.7 µM (inactive)	2.75 µM (inactive)	17.7 µM (inactive)
O=C1c2c(Br)sc(Br)c2[C@H]2OC(=S)N[C@@H]12	17.1 µM (inactive)	6.07 µM (inactive)	4.45 µM (inactive)	3.21 µM (inactive)	11 µM (inactive)	0.624 µM (active)	2.17 µM (inactive)	1.88	2.51 µM (inactive)	2.6 µM (inactive)	10.1 µM (inactive)	13.6 µM (inactive)	15.2 µM (inactive)	10.6 µM (inactive)	2 µM (inactive)	–	11.8 µM (inactive)	4.07 µM (inactive)	3.02 µM (inactive)	15.7 µM (inactive)
O=C1c2cc3c(cc2[C@@H]2NC4CCCC14O2)OCO3 (stereo partly specified)	> 100 µM (inactive)	> 100 µM (inactive)	> 100 µM (inactive)	> 100 µM (inactive)	> 100 µM (inactive)	> 100 µM (inactive)	> 100 µM (inactive)	–	–	> 100 µM (inactive)	> 100 µM (inactive)	> 100 µM (inactive)	> 100 µM (inactive)	–	> 100 µM (inactive)	> 100 µM (inactive)	–	–	–	> 100 µM (inactive)
Cc1nn(C(=O)c2ccc(Cl)cc2)c2c1C(c1ccc(O)cc1)SC(=N)N2 (stereo unspecified)	> 10 µM (inactive)	> 10 µM (inactive)	> 10 µM (inactive)	> 10 µM (inactive)	> 10 µM (inactive)	> 10 µM (inactive)	> 10 µM (inactive)	> 10	> 10 µM (inactive)	> 10 µM (inactive)	> 10 µM (inactive)	> 10 µM (inactive)	> 10 µM (inactive)	> 10 µM (inactive)	> 10 µM (inactive)	–	> 10 µM (inactive)	> 10 µM (inactive)	> 10 µM (inactive)	> 10 µM (inactive)
